According to patent US9283222B2 (priority 2006, dated 2016):
Where two headings read alike, the source gives them in different places.

Target: Recombinant Human Poly(ADP-Ribose) Polymerase (PARP), PARP-1 (Homo sapiens (Human), UniProt P09874)
Conditions: read-out: PARP-1 (Ki)
[1] = Table 1, text calls the values EC50s

Recombinant Human Poly(ADP-Ribose) Polymerase (PARP), PARP-1, sequence (P09874 whole entry): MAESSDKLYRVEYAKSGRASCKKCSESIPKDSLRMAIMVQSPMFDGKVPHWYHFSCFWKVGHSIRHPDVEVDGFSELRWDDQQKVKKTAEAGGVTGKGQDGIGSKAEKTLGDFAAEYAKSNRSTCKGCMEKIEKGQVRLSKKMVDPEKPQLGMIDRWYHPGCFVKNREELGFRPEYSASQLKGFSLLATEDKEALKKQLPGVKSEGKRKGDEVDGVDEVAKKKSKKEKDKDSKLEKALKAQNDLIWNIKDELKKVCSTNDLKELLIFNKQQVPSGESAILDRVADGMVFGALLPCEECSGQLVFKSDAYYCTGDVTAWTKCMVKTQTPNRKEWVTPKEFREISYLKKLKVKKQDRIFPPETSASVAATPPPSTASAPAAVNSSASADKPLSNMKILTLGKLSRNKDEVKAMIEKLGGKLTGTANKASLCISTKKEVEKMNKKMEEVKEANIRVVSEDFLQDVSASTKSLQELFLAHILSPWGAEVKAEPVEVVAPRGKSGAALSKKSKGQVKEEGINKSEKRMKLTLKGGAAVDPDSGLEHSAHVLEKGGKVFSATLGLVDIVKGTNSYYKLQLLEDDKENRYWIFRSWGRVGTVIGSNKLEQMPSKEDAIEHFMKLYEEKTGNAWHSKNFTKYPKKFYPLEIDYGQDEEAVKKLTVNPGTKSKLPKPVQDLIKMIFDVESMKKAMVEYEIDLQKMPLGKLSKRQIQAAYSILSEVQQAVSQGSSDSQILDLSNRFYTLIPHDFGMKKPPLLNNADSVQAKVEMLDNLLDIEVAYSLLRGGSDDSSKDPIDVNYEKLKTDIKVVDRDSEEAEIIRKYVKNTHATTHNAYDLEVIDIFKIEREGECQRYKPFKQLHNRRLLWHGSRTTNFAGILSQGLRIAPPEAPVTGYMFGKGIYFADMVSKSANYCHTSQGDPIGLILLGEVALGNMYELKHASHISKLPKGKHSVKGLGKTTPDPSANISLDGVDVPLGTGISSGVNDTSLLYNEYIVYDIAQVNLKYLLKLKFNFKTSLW

Ki [1] | Ki (Table 2, A2 is C1-alkyl versus no A2 (bond)) | Compound
4.2 nM | – | O=C(c1ccc2ccccc2n1)N1CCCN(C(=O)c2cc(Cc3n[nH]c(=O)c4c3NCCC4)ccc2F)CC1 [Example 687, 8-(4-fluoro-3-{[4-(quinolin-2-ylcarbonyl)-1,4-diazepan-1-yl]carbonyl}benzyl)-2,3,4,6-tetrahydropyrido[2,3-d]pyridazin-5(1H)-one]
694 nM | – | O=c1[nH]nc(Cc2ccc(F)c(N3CCCCS3(=O)=O)c2)c2c1CCCC2 [Example 448]
1 nM | – | O=C(c1ccc2[nH]cnc2c1)N1CCN(C(=O)c2cc(Cc3n[nH]c(=O)c4c3NCCC4)ccc2F)CC1 [Example 663, 8-(3-{[4-(1H-benzimidazol-5-ylcarbonyl)piperazin-1-yl]carbonyl}-4-fluorobenzyl)-2,3,4,6-tetrahydropyrido[2,3-d]pyridazin-5(1H)-one]
14 nM | – | O=C(CN1CCCC1=O)Nc1cc(Cc2n[nH]c(=O)c3c2CCCC3)ccc1F [Example 453, N-(2-fluoro-5-((4-oxo-3,4,5,6,7,8-hexahydrophthalazin-1-yl)methyl)phenyl)-2-(2-oxopyrrolidin-1-yl)acetamide]
120 nM | – | O=C(c1cccc(Cc2n[nH]c(=O)c3c2CCCC3)c1)N(Cc1ccccc1)Cc1ccccc1 [Example 423, N,N-dibenzyl-3-((4-oxo-3,4,5,6,7,8-hexahydrophthalazin-1-yl)methyl)benzamide]
1.5 nM | – | O=C(NC1CCN(C(=O)c2cc(Cc3n[nH]c(=O)c4c3NCCC4)ccc2F)CC1)c1cccnc1 [Example 747, N-(1-{2-fluoro-5-[(5-oxo-1,2,3,4,5,6-hexahydropyrido[2,3-d]pyridazin-8-yl)methyl]benzoyl}piperidin-4-yl)nicotinamide]
1.8 nM | – | CC1(C(=O)N2CCCN(C(=O)c3cc(Cc4n[nH]c(=O)c5c4CCCC5)ccc3F)CC2)CC1 [Example 635, 4-[4-fluoro-3-({4-[(1-methylcyclopropyl)carbonyl]-1,4-diazepan-1-yl}carbonyl)benzyl]-5,6,7,8-tetrahydrophthalazin-1(2H)-one]
7 nM | – | CN(C(=O)c1cc(Cc2n[nH]c(=O)c3c2NCCC3)ccc1F)C1CCN(C(=O)c2cccnc2)CC1 [Example 710, 2-fluoro-N-methyl-5-[(5-oxo-1,2,3,4,5,6-hexahydropyrido[2,3-d]pyridazin-8-yl)methyl]-N-[1-(pyridin-3-ylcarbonyl)piperidin-4-yl]benzamide]
76 nM | – | CSc1ccc(NC(=O)c2cccc(Cc3n[nH]c(=O)c4c3CCCC4)c2)cc1 [Example 361, N-(4-(methylthio)phenyl)-3-((4-oxo-3,4,5,6,7,8-hexahydrophthalazin-1-yl)methyl)benzamide]
1 nM | – | CCN(CCNC(=O)c1c(F)cccc1F)C(=O)c1cc(Cc2n[nH]c(=O)c3c2CCCC3)ccc1F [Example 762, N-{2-[(2,6-difluorobenzoyl)amino]ethyl}-N-ethyl-2-fluoro-5-[(4-oxo-3,4,5,6,7,8-hexahydrophthalazin-1-yl)methyl]benzamide]
33 nM | – | O=C(NCCc1cccc(F)c1)c1cccc(Cc2n[nH]c(=O)c3c2CCCC3)c1 [Example 386, N-(2-(3-fluorophenyl)ethyl)-3-((4-oxo-3,4,5,6,7,8-hexahydrophthalazin-1-yl)methyl)benzamide]
– | 191 nM | O=C1CCCN1c1cc(-c2n[nH]c(=O)c3c2CCCC3)ccc1F [drawing 8]
1.5 nM | – | CCOC(=O)N1CCN(C(=O)c2cc(Cc3n[nH]c(=O)c4c3NCCC4)ccc2F)CC1 [Example 666, ethyl 4-{2-fluoro-5-[(5-oxo-1,2,3,4,5,6-hexahydropyrido[2,3-d]pyridazin-8-yl)methyl]benzoyl}piperazine-1-carboxylate]
1.4 nM | – | O=C(NC1CCN(C(=O)c2cc(Cc3n[nH]c(=O)c4c3NCCC4)ccc2F)CC1)c1cn[nH]c1 [Example 758, N-(1-{2-fluoro-5-[(5-oxo-1,2,3,4,5,6-hexahydropyrido[2,3-d]pyridazin-8-yl)methyl]benzoyl}piperidin-4-yl)-1H-pyrazole-4-carboxamide]
2.1 nM | – | O=C(c1ccc(F)cc1)C1CCN(C(=O)c2cc(Cc3n[nH]c(=O)c4c3NCCC4)ccc2F)CC1 [Example 691, 8-(4-fluoro-3-{[4-(4-fluorobenzoyl)piperidin-1-yl]carbonyl}benzyl)-2,3,4,6-tetrahydropyrido[2,3-d]pyridazin-5(1H)-one]
10 nM | – | O=C(c1cc(Cc2n[nH]c(=O)c3c2CCCC3)ccc1F)N1CCN(Cc2ccccc2Cl)CC1 [Example 518, 4-(3-{[4-(2-chlorobenzyl)piperazin-1-yl]carbonyl}-4-fluorobenzyl)-5,6,7,8-tetrahydrophthalazin-1(2H)-one]
31 nM | – | O=C(NCCc1ccc(Cl)cc1)c1cccc(Cc2n[nH]c(=O)c3c2CCCC3)c1 [Example 390, N-(2-(4-chlorophenyl)ethyl)-3-((4-oxo-3,4,5,6,7,8-hexahydrophthalazin-1-yl)methyl)benzamide]
4 nM | – | O=C(c1cc(Cc2n[nH]c(=O)c3c2NCCC3)ccc1F)N1CCN(CCN2CCOCC2)CC1 [Example 566, 8-(4-fluoro-3-{[4-(2-morpholin-4-ylethyl)piperazin-1-yl]carbonyl}benzyl)-2,3,4,6-tetrahydropyrido[2,3-d]pyridazin-5(1H)-one]
42 nM | – | Cc1cccc(CCNC(=O)c2cccc(Cc3n[nH]c(=O)c4c3CCCC4)c2)c1 [Example 377, N-(2-(3-methylphenyl)ethyl)-3-((4-oxo-3,4,5,6,7,8-hexahydrophthalazin-1-yl)methyl)benzamide]
1.5 nM | – | CC1(C)SCN[C@@H]1C(=O)N1CCN(C(=O)c2cc(Cc3n[nH]c(=O)c4c3CCCC4)ccc2F)CC1 [Example 677, 4-{3-[(4-{[(4R)-5,5-dimethyl-1,3-thiazolidin-4-yl]carbonyl}piperazin-1-yl)carbonyl]-4-fluorobenzyl}-5,6,7,8-tetrahydrophthalazin-1(2H)-one]
120 nM | – | COc1ccc(Nc2ccc(NC(=O)c3cccc(Cc4n[nH]c(=O)c5c4CCCC5)c3)cc2)cc1 [Example 365, N-(4-((4-methoxyphenyl)amino)phenyl)-3-((4-oxo-3,4,5,6,7,8-hexahydrophthalazin-1-yl)methyl)benzamide]
1.1 nM | – | O=C(c1cnc(Cl)c(O)c1)N1CCN(C(=O)c2cc(Cc3n[nH]c(=O)c4c3NCCC4)ccc2F)CC1 [Example 651]

The remaining lines, values behind:

Compound | Ki [1] | Ki (Table 2, A2 is C1-alkyl versus no A2 (bond))
Cc1c(F)cccc1C(=O)Nc1cccc(Cc2n[nH]c(=O)c3c2CCCC3)c1 [Example 178, 3-fluoro-2-methyl-N-(3-((4-oxo-3,4,5,6,7,8-hexahydrophthalazin-1-yl)methyl)phenyl)benzamide] | 462 nM | –
O=C(Nc1cccc(Cc2n[nH]c(=O)c3c2CCCC3)c1)c1ccccc1Cc1ccccc1 [Example 239, 2-benzyl-N-(3-((4-oxo-3,4,5,6,7,8-hexahydrophthalazin-1-yl)methyl)phenyl)benzamide] | 554 nM | –
COC(=O)c1ccc(Cc2n[nH]c(=O)c3c2CCCC3)cn1 [Example 86, methyl 5-((4-oxo-3,4,5,6,7,8-hexahydrophthalazin-1-yl)methyl)pyridine-2-carboxylate] | 390 nM | –
CS(=O)(=O)c1cccc(-c2cc(Cc3n[nH]c(=O)c4c3CCCC4)ccc2F)c1 [Example 249, 4-((6-fluoro-3′-(methylsulfonyl)-1,1′-biphenyl-3-yl)methyl)-5,6,7,8-tetrahydrophthalazin-1(2H)-one] | 85 nM | –
Cc1ccsc1C(=O)Nc1cccc(Cc2n[nH]c(=O)c3c2CCCC3)c1 [Example 198, 3-methyl-N-(3-((4-oxo-3,4,5,6,7,8-hexahydrophthalazin-1-yl)methyl)phenyl)thiophene-2-carboxamide] | 403 nM | –
CC(C)Oc1ccc(C(=O)Nc2cccc(Cc3n[nH]c(=O)c4c3CCCC4)c2)cc1 [Example 188, 4-isopropoxy-N-(3-((4-oxo-3,4,5,6,7,8-hexahydrophthalazin-1-yl)methyl)phenyl)benzamide] | 185 nM | –
Cc1cc(F)ccc1NC(=O)c1cccc(Cc2n[nH]c(=O)c3c2CCCC3)c1 [Example 340, N-(4-fluoro-2-methylphenyl)-3-((4-oxo-3,4,5,6,7,8-hexahydrophthalazin-1-yl)methyl)benzamide] | 279 nM | –
CC(=O)Nc1cccc(-c2cccc(C(C)Cc3n[nH]c(=O)c4c3CCCC4)c2)c1 (stereo not shown) [Example 284, N-(3′-(1-methyl-2-(4-oxo-3,4,5,6,7,8-hexahydrophthalazin-1-yl)ethyl)-1,1′-biphenyl-3-yl)acetamide] | 2210 nM | –
Cc1ccc(NC(=O)c2cccc(Cc3n[nH]c(=O)c4c3CCCC4)c2)cc1O [Example 350, N-(3-hydroxy-4-methylphenyl)-3-((4-oxo-3,4,5,6,7,8-hexahydrophthalazin-1-yl)methyl)benzamide] | 143 nM | –
CC(Cc1n[nH]c(=O)c2c1CCCC2)c1ccc(F)c(-c2cccc(CNS(C)(=O)=O)c2)c1 (stereo not shown) [Example 297] | 1440 nM | –
NC(=O)c1cccc(-c2cc(CCc3n[nH]c(=O)c4c3CCCC4)ccc2F)c1 [Example 272, 2′-fluoro-5′-(2-(4-oxo-3,4,5,6,7,8-hexahydrophthalazin-1-yl)ethyl)-1,1′-biphenyl-3-carboxamide] | 204 nM | –
COc1ccc(C(=O)CCC(=O)Nc2cccc(Cc3n[nH]c(=O)c4c3CCCC4)c2)cc1 [Example 173, 4-(4-methoxyphenyl)-4-oxo-N-(3-((4-oxo-3,4,5,6,7,8-hexahydrophthalazin-1-yl)methyl)phenyl)butanamide] | 2 nM | –
CCOc1ccccc1NC(=O)c1cccc(Cc2n[nH]c(=O)c3c2CCCC3)c1 [Example 354, N-(2-ethoxyphenyl)-3-((4-oxo-3,4,5,6,7,8-hexahydrophthalazin-1-yl)methyl)benzamide] | 363 nM | –
O=c1[nH]nc(Cc2cccc(NS(=O)(=O)c3cccs3)c2)c2c1CCCC2 [Example 120, N-(3-((4-oxo-3,4,5,6,7,8-hexahydrophthalazin-1-yl)methyl)phenyl)thiophene-2-sulfonamide] | 626 nM | –
O=C(Nc1cccc(Cc2n[nH]c(=O)c3c2CCCC3)c1)C1=Cc2cc(Cl)ccc2OC1 [Example 220, 6-chloro-N-(3-((4-oxo-3,4,5,6,7,8-hexahydrophthalazin-1-yl)methyl)phenyl)-2H-chromene-3-carboxamide] | 14 nM | –
